Measured values as given in patent publication US20250327032A1, “AGENT FOR AVOIDING IMMUNE RESPONSE OF TRANSGENIC CELLS” (HYPERION DRUG DISCOVERY CO., LTD., priority 2021, published 2025).

System: TNF-α
Assay: TNF-α expression level (qPCR) after introduction of GFP-tagged CAR-T plasmid
Type: cell-based, human
Conditions: Jurkat E6.1; JSH-23 0.1 μM; compared to CAR-T plasmid introduced without JSH-23
Procedure: Human leukemia T cells (Jurkat E6.1) were seeded in a 6-well plate to be about 10,000 cells/cm^2. As a culture solution, RPMI1640 medium comprising 10% bovine serum was used. To this, 0.1 μM of JSH-23 was added, or for comparison, 0.1% (v/v) DMSO instead of JSH-23 was added and used.
A lipofection solution was prepared by adding Lipofectamine 2000 and GFP-tagged CAR-T plasmid to OptiMEM. The amount of plasmid was prepared to be 1 pg/cell. The prepared lipofection solution was mixed well according to the manufacturer's recommended protocol and allowed to stand at room temperature for about 15 minutes.
Next, the lipofection solution was added to the plate seeded with human leukemia T cells, and cultured in a CO2 incubator at 37° C. for about 1 day (18 hours). After culturing, all the culture solution comprising the lipofection solution was removed and replaced with a new culture solution having the same composition as before the addition of the lipofection solution. […]
cDNA was synthesized from the purified RNA using SuperScript™ III Reverse Transcriptase according to the manufacturer's protocol. qPCR was performed using the synthesized cDNA and PCR primers as well as PowerTrack™ SYBR Green Master Mix. The measured Ct value of TNF-α was normalized with the Ct value of β-actin, a housekeeping gene.

Cc1ccc(NCCCc2ccccc2)c(N)c1 [JSH-23]
increase in the expression level of TNF-α: reduced
